Laboratory results reported in publication PMC5428509, “Irreversible inhibition of BTK kinase by a novel highly selective inhibitor CHMFL-BTK-11 suppresses inflammatory response in rheumatoid arthritis model” (Scientific Reports, 2017).

How the values were obtained:
JAK3 kinase = molecular target: T1, JAK3 kinase (Homo sapiens, UniProt P52333); assay: ADP-Glo biochemical kinase assay; also strong binding in KinomeScan at […]
T1 construct: purified JAK3 kinase protein

ACVR2A = ACVR2A (Homo sapiens, UniProt P27037); assay: biochemical; set-up: KinomeScan competition binding panel (DiscoveRx), percent of control at 1 uM; conditions: read-out: Percent Control
Excerpt: (§1) In order to further confirm the binding mode, we then tested the compounds in the BTK wild-type (wt) and BTK C481S mutant with immunoblotting by looking at the BTK Y551 auto-phosphorylation. […] In addition, a covalent bond was preferred to form between the […] acrylamide and Cys-481 near the hinge binding area, which further confirmed its irreversible binding mode (Fig. 1d). We next investigated CHMFL-BTK-11′s selectivity profile in 456 kinases/mutants with KinomeScan^TM technology.

AMPK-alpha2 = molecular target: T2, AMPK-alpha2 (Homo sapiens, UniProt P54646); assay: biochemical; set-up: KinomeScan competition binding panel (DiscoveRx), percent of control at 1 uM; conditions: read-out: Percent Control
T2 construct: gene PRKAA2
Excerpt: as §1

CDKL5 = CDKL5 (Homo sapiens, UniProt O76039); assay: biochemical; set-up: KinomeScan competition binding panel (DiscoveRx), percent of control at 1 uM; conditions: read-out: Percent Control
Excerpt: as §1

DLK = molecular target: T3, DLK (Homo sapiens, UniProt Q12852); assay: biochemical; set-up: KinomeScan competition binding panel (DiscoveRx), percent of control at 1 uM; conditions: read-out: Percent Control
T3 construct: gene MAP3K12
Excerpt: as §1

EGFR = EGFR (Homo sapiens, UniProt P00533); assay: biochemical; set-up: KinomeScan competition binding panel (DiscoveRx), percent of control at 1 uM; conditions: read-out: Percent Control
Excerpt: as §1

EPHB1 = EPHB1 (Homo sapiens, UniProt P54762); assay: biochemical; set-up: KinomeScan competition binding panel (DiscoveRx), percent of control at 1 uM; conditions: read-out: Percent Control
Excerpt: as §1

ERN1 = ERN1 (Homo sapiens, UniProt O75460); assay: biochemical; set-up: KinomeScan competition binding panel (DiscoveRx), percent of control at 1 uM; conditions: read-out: Percent Control
Excerpt: as §1

FGFR3 = FGFR3 (Homo sapiens, UniProt P22607); assay: biochemical; set-up: KinomeScan competition binding panel (DiscoveRx), percent of control at 1 uM; conditions: read-out: Percent Control
Excerpt: as §1

FGFR4 = FGFR4 (Homo sapiens, UniProt P22455); assay: biochemical; set-up: KinomeScan competition binding panel (DiscoveRx), percent of control at 1 uM; conditions: read-out: Percent Control
Excerpt: as §1

FLT1 = FLT1 (Homo sapiens, UniProt P17948); assay: biochemical; set-up: KinomeScan competition binding panel (DiscoveRx), percent of control at 1 uM; conditions: read-out: Percent Control
Excerpt: as §1

FLT3(D835Y) = FLT3(D835Y) (Homo sapiens, UniProt P36888, D835Y); assay: biochemical; set-up: KinomeScan competition binding panel (DiscoveRx), percent of control at 1 uM; conditions: read-out: Percent Control
Excerpt: as §1

GSK3A = GSK3A (Homo sapiens, UniProt P49840); assay: biochemical; set-up: KinomeScan competition binding panel (DiscoveRx), percent of control at 1 uM; conditions: read-out: Percent Control
Excerpt: as §1

HIPK1 = HIPK1 (Homo sapiens, UniProt Q86Z02); assay: biochemical; set-up: KinomeScan competition binding panel (DiscoveRx), percent of control at 1 uM; conditions: read-out: Percent Control
Excerpt: as §1

[1] = molecular target: T4, JAK1(JH2domain-pseudokinase) (Homo sapiens, UniProt P23458); assay: biochemical; set-up: KinomeScan competition binding panel (DiscoveRx), percent of control at 1 uM; conditions: read-out: Percent Control
T4 construct: JH2domain-pseudokinase
Excerpt: as §1

[2] = molecular target: T5, JAK3(JH1domain-catalytic) (Homo sapiens, UniProt P52333); assay: biochemical; set-up: KinomeScan competition binding panel (DiscoveRx), percent of control at 1 uM; conditions: read-out: Percent Control
T5 construct: JH1domain-catalytic
Excerpt: as §1

KIT(D816H) = KIT(D816H) (Homo sapiens, UniProt P10721, D816H); assay: biochemical; set-up: KinomeScan competition binding panel (DiscoveRx), percent of control at 1 uM; conditions: read-out: Percent Control
Excerpt: as §1

LYN = LYN (Homo sapiens, UniProt P07948); assay: biochemical; set-up: KinomeScan competition binding panel (DiscoveRx), percent of control at 1 uM; conditions: read-out: Percent Control
Excerpt: as §1

MET = MET (Homo sapiens, UniProt P08581); assay: biochemical; set-up: KinomeScan competition binding panel (DiscoveRx), percent of control at 1 uM; conditions: read-out: Percent Control
Excerpt: as §1

NEK1 = NEK1 (Homo sapiens, UniProt Q96PY6); assay: biochemical; set-up: KinomeScan competition binding panel (DiscoveRx), percent of control at 1 uM; conditions: read-out: Percent Control
Excerpt: as §1

PAK7 = molecular target: T6, PAK7 (Homo sapiens, UniProt Q9P286); assay: biochemical; set-up: KinomeScan competition binding panel (DiscoveRx), percent of control at 1 uM; conditions: read-out: Percent Control
T6 construct: gene PAK5
Excerpt: as §1

PIM2 = PIM2 (Homo sapiens, UniProt Q9P1W9); assay: biochemical; set-up: KinomeScan competition binding panel (DiscoveRx), percent of control at 1 uM; conditions: read-out: Percent Control
Excerpt: as §1

PRKCE = PRKCE (Homo sapiens, UniProt Q02156); assay: biochemical; set-up: KinomeScan competition binding panel (DiscoveRx), percent of control at 1 uM; conditions: read-out: Percent Control
Excerpt: as §1

SYK = SYK (Homo sapiens, UniProt P43405); assay: biochemical; set-up: KinomeScan competition binding panel (DiscoveRx), percent of control at 1 uM; conditions: read-out: Percent Control
Excerpt: as §1

TAOK3 = TAOK3 (Homo sapiens, UniProt Q9H2K8); assay: biochemical; set-up: KinomeScan competition binding panel (DiscoveRx), percent of control at 1 uM; conditions: read-out: Percent Control
Excerpt: as §1

Chain of LYN (P07948 whole entry): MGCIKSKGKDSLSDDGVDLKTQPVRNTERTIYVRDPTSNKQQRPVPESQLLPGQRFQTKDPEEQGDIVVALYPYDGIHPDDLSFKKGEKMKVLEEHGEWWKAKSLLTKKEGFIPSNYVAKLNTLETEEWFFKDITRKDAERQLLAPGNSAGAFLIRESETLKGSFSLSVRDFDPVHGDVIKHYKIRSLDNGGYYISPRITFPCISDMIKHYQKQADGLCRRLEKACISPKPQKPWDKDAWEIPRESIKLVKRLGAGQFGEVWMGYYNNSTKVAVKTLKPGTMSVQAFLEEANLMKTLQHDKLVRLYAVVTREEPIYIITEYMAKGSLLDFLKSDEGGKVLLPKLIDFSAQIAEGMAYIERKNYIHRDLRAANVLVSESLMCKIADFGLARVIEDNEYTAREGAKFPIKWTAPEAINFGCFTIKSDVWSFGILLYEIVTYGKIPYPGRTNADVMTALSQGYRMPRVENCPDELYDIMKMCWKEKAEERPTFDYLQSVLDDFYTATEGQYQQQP
T4 sequence (P23458 whole entry): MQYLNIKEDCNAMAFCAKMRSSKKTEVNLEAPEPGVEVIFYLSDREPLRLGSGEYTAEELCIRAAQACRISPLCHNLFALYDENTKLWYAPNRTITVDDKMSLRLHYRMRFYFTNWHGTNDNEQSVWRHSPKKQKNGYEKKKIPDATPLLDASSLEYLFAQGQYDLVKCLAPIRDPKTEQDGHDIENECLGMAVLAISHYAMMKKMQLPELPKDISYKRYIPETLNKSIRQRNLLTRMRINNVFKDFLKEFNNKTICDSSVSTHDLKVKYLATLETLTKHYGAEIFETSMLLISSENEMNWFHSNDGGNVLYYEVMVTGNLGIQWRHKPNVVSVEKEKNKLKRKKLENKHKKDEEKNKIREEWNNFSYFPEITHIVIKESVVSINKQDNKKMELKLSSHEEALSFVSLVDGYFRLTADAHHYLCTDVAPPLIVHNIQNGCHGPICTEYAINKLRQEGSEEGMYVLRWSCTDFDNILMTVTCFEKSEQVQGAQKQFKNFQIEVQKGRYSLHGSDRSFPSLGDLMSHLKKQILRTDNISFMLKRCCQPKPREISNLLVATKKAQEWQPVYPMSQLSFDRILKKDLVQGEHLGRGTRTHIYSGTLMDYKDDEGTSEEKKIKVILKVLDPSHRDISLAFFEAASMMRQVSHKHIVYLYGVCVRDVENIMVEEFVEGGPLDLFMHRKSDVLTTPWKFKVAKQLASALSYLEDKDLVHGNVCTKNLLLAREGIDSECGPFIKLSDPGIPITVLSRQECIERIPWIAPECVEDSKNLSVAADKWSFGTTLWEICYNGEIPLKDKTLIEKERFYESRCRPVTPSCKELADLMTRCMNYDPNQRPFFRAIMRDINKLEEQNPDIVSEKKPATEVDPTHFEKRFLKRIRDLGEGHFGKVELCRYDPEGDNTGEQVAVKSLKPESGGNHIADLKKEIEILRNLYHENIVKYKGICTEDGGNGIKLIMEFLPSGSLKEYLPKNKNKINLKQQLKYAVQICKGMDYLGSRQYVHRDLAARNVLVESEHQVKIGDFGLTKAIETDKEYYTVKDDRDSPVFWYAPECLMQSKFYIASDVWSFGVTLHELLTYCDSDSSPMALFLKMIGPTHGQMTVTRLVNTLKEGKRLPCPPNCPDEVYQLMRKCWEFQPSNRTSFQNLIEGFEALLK
Chain of TAOK3 (Q9H2K8 whole entry): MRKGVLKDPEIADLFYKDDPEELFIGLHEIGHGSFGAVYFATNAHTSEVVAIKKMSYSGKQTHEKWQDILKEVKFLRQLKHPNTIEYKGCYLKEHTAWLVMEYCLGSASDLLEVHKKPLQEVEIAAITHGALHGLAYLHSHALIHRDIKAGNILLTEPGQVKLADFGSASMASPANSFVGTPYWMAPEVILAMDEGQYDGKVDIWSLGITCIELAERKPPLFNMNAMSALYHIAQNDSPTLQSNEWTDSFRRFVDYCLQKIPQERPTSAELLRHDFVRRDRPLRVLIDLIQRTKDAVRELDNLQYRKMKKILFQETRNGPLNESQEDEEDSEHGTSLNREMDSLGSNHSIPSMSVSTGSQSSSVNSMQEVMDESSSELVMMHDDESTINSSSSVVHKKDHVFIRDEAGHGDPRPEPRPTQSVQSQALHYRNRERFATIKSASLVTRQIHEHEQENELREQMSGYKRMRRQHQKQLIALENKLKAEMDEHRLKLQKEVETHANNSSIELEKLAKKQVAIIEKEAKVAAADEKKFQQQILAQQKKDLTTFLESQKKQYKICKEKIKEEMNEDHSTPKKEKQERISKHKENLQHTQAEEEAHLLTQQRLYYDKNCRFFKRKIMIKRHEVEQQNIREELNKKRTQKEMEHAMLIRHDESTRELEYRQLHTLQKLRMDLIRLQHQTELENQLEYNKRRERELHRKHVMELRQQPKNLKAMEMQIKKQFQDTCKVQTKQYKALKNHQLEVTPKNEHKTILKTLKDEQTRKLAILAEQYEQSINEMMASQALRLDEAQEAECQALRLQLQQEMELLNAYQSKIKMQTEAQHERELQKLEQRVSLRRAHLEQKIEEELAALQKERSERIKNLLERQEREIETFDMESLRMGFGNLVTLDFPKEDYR
Chain of FGFR3 (P22607 whole entry): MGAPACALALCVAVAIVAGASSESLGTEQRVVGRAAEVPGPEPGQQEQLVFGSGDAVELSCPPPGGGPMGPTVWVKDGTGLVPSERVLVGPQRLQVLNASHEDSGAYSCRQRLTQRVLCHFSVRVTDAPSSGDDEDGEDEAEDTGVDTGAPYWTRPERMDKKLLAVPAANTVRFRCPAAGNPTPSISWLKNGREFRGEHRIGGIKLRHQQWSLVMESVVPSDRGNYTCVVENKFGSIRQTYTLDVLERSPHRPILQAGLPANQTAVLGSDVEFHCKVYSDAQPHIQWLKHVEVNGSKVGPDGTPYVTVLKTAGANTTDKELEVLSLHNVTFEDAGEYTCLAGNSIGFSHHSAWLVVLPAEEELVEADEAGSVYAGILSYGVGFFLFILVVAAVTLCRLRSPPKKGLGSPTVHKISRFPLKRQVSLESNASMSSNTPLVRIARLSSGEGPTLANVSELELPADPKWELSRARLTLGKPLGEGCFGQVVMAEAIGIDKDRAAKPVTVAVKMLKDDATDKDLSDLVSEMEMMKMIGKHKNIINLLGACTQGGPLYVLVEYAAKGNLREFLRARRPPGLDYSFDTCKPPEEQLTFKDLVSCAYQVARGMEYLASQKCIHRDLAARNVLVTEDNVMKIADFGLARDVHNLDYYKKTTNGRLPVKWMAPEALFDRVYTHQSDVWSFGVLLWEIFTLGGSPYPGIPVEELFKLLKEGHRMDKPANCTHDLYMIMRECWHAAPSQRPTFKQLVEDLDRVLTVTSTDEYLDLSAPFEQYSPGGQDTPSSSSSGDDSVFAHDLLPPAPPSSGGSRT
Chain of EPHB1 (P54762 whole entry): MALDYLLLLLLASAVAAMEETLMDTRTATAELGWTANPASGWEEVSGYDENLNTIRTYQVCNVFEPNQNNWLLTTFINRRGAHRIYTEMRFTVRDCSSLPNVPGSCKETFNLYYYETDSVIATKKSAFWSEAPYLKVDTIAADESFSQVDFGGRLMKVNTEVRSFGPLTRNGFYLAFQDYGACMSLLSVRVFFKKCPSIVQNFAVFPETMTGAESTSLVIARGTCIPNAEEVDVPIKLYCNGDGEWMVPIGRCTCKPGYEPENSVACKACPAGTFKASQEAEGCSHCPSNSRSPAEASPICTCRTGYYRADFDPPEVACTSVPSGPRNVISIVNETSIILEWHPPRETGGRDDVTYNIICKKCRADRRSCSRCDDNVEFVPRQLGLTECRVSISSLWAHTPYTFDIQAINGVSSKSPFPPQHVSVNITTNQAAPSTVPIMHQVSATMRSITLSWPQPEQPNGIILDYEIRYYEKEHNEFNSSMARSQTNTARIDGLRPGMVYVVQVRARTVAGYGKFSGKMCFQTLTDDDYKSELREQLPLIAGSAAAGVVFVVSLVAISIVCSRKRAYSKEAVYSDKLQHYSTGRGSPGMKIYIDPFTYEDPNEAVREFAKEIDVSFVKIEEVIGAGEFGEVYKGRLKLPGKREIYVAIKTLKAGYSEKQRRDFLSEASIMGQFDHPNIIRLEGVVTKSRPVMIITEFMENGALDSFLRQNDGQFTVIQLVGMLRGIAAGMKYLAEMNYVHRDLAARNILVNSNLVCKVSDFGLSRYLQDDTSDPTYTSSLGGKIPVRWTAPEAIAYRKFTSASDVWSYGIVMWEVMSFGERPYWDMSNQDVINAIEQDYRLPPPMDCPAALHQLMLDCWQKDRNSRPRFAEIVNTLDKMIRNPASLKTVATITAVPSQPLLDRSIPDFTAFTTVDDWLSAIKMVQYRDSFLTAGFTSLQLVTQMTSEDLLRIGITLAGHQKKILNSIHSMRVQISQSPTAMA
T2 sequence (P54646 whole entry): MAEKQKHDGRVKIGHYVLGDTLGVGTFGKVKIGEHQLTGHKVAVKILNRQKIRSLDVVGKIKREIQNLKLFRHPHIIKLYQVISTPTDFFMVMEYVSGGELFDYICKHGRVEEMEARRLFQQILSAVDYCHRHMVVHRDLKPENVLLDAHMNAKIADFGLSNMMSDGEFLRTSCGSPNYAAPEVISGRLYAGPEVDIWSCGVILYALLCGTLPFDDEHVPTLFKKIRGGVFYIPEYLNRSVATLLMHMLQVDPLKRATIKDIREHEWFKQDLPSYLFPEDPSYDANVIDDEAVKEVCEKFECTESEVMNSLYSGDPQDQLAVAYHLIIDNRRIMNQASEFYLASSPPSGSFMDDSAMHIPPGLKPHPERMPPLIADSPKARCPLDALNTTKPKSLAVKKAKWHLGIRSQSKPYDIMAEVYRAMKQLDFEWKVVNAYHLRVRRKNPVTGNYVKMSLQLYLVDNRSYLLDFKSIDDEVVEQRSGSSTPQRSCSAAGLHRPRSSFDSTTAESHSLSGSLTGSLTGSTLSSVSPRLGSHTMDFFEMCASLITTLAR

Compound: C=CC(=O)Nc1cc(-n2c(=O)ccc3cnc4ccc(-n5cccn5)cc4c32)ccc1C [CHMFL-BTK-11]
- IC50 (JAK3 kinase): 0.227 µM
- remaining binding at 1 µM (ACVR2A): 100%
- remaining binding at 1 µM (AMPK-alpha2): 86%
- remaining binding at 1 µM (CDKL5): 100%
- remaining binding at 1 µM (DLK): 100%
- remaining binding at 1 µM (EGFR): 88%
- remaining binding at 1 µM (EPHB1): 100%
- remaining binding at 1 µM (ERN1): 76%
- remaining binding at 1 µM (FGFR3): 89%
- remaining binding at 1 µM (FGFR4): 100%
- remaining binding at 1 µM (FLT1): 88%
- remaining binding at 1 µM (FLT3(D835Y)): 100%
- remaining binding at 1 µM (GSK3A): 90%
- remaining binding at 1 µM (HIPK1): 79%
- remaining binding at 1 µM [1]: 82%
- remaining binding at 1 µM [2]: 5.7%
- remaining binding at 1 µM (KIT(D816H)): 100%
- remaining binding at 1 µM (LYN): 94%
- remaining binding at 1 µM (MET): 100%
- remaining binding at 1 µM (NEK1): 82%
- remaining binding at 1 µM (PAK7): 100%
- remaining binding at 1 µM (PIM2): 100%
- remaining binding at 1 µM (PRKCE): 97%
- remaining binding at 1 µM (SYK): 93%
- remaining binding at 1 µM (TAOK3): 93%
